Article PMC7821884, “BRAF inhibition protects against hearing loss in mice” (Science Advances, 2020)

What was measured:
[1] = tested on: human neuroblastoma and lung carcinoma cell lines; assay: Tumor Cell Titer-Glo viability assay, interference with cisplatin tumor killing (six cell lines); assay type: cell-based; conditions: compound at 3× protective IC50 (dabrafenib 35 μM, AZD5438 […]) + 15 μM cisplatin (200 μM for A549), 48 hours
Source text: (§1) In clinical settings, cisplatin is used to treat several tumor types, including neuroblastoma and lung carcinoma. […] Medium-alone–, cisplatin-alone–, and dabrafenib-alone–treated cells were used as controls, and viability was reported as percent survival compared to medium alone (Fig. 4E).
(§2) Three human neuroblastoma cell lines IMR-32, SH-SY5Y, and, SK-N-AS, as well as three human lung carcinoma cell lines SHP-77 small cell, H1155 non–small cell, and A549 non–small cell, were used to determine the compounds’ effect on cisplatin’s tumor-killing efficacy ([77]–[83]). Cell lines were purchased from the American Type Culture Collection (ATCC), and cell culture was conducted according to ATCC specifications. Neuroblastoma cell lines IMR-32 and SH-SY5Y are maintained in Dulbecco’s modified Eagle’s medium (DMEM) 1× with glucose (4.5 g/liter), L-glutamine, and sodium pyruvate (10-013-CV, Corning) with 10% fetal bovine serum (FBS) (35011132, Corning) and ampicillin (50 μg/ml; A5354-10ML, Sigma-Aldrich) added. The SK-N-AS cell line is maintained in DMEM 1× with D-glucose (4.5 g/liter), L-glutamine, and 25 mM Hepes (12430-054, Gibco) with 10% FBS, 0.1 mM nonessential amino acids, and ampicillin (50 μg/ml) added. A549 cells are maintained in F-12K medium with L-glutamine (30-2004, ATCC) with 10% FBS and ampicillin (50 μg/ml) added. […]

[2] = tested on: P3-P4 FVB mouse cochlear explants; conditions: FVB, mouse, 24 h
Method: Mouse cochlear explants are widely recognized as an alternative to in vivo cochlear models and pragmatic for focused drug screening ([37]). […] Medium-alone, drug-alone, and cisplatin-alone treatments were used as controls.
P3-P4 FVB mouse cochleae were dissected and maintained in culture on filter inserts in six-well plates with 1 ml of growth medium DMEM (12430-054,Gibco Life Technologies), with 1% FBS (16000-044, Gibco Life Technologies), B-27 supplement (200 μl/500 ml; 17504-44, Gibco Life Technologies), N-2 supplement (100 μl/500 ml; 17502-048, Gibco Life Technologies), and ampicillin (50 μg/ml; A5354-10ML, Sigma-Aldrich) both inside and outside the filter (Millicell, PICM03050, Millipore). […] Cochleae were imaged by confocal microscopy, two 160-μm regions from middle turns were photographed, and the number of intact HCs was counted. Two to five independent cochleae were tested for each experimental condition.

[3] = parameters: method as in PMID 29039591, PMID 31818130; conditions: cited from earlier work
[4] = tested on: HEI-OC1 cell line; assay: Caspase-Glo 3/7 activity screen for protection from cisplatin-induced cell death; assay type: cell-based, mouse; conditions: Mus musculus; HEI-OC1, 50 μM cisplatin, 22 hours
Method: An unbiased screen for compounds protective against cisplatin ototoxicity ([12], [13]) was conducted using the immortalized inner ear cell line HEI-OC1 derived from mouse cochlea ([14]). One hundred sixty-two unique small-molecule kinase-specific inhibitors were screened in dose-response mode for protection from 50 μM cisplatin. A caspase-3/7 activity assay was selected to measure apoptosis using a protocol that quantifies a luminescent product derived from the cleavage of caspase-3/7 substrate (Caspase-Glo 3/7 reagent). One hundred percent luminescence was defined by cells treated with cisplatin alone, and 0% was defined by untreated cells (Fig. 1A, fig. S1, table S1, and dataset in the Supplementary Materials).
In these screens, caspase-3 cleavage was chosen as the end point indicating cisplatin-induced apoptosis, because it allowed the inhibition of cell death to be monitored at the level of any molecular target upstream of caspase-3 cleavage in the HEI-OC1 cell line. Cells were plated at a previously optimized concentration of 1600 cells per well in medium without γ-interferon to limit proliferation and tested against 50 μM cisplatin based on a previous dose–response curve. Tested compounds were dissolved in DMSO before addition to medium with a final DMSO concentration of <0.5%. The screens are described in detail in our previous publications ([12], [13]). […]

[5] = tested on: SHP-77 small cell; assay: Tumor Cell Titer-Glo viability assay, SHP-77; assay type: cell-based, human
Source text: as §1, §2

## CC(C)(C)c1nc(-c2cccc(NS(=O)(=O)c3c(F)cccc3F)c2F)c(-c2ccnc(N)n2)s1 [dabrafenib]
[1]
  effect on cisplatin-induced tumor cell death: no inhibitory effect
[2]
  LD50 (median lethal dose): > 60 µM
[3]
  blood-brain barrier penetration: penetrates the blood-brain barrier
[4]
  IC50: 13.5 µM
[5]; SHP-77, 35 μM + 15 μM cisplatin, 48 hours
  effect on tumor cell death when combined with cisplatin: increased tumor cell death
[5]; SHP-77, 35 μM, no cisplatin
  cell survival, drug treatment alone: significant inhibition
